Our source for the IC50 values is US20230286958A1, “PLASMA KALLIKREIN INHIBITORS” (Merck Sharp & Dohme LLC, priority 2020, published 2023).

Each structure is given as a SMILES string.

One test has as its target human Factor XIa (Homo sapiens (Human), UniProt P03951). Briefly: Factor XIa Assay (fluorogenic substrate GPR-AFC). The class given is biochemical. To be noted: Factor XIa (FXIa).
The target of another test is Human plasma kallikrein (Homo sapiens (Human), UniProt P03952). Briefly: Kallikrein Assay (fluorogenic substrate Acetyl-K-P-R-AFC). The settings on record: Plasma Kallikrein (PKal). Format: biochemical. In a few lines: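 Ki is derived from IC50 with the Cheng-Prusoff equation, and IC50 from the inflection point of a four-parameter logistic curve. The rate of AFC release is read with 0.5 nM purified enzyme and […] substrate at room temperature or 37 °C.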
Human plasma kallikrein, sequence (P03952 391-638): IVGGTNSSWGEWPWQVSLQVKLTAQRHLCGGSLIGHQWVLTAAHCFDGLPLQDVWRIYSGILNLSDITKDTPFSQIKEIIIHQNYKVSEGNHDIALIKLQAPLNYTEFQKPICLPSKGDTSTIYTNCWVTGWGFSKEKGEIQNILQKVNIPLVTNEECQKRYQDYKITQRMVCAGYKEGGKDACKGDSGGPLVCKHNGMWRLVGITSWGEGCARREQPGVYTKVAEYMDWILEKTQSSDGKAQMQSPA
Human plasma kallikrein, sequence (P03952 20-390 partner): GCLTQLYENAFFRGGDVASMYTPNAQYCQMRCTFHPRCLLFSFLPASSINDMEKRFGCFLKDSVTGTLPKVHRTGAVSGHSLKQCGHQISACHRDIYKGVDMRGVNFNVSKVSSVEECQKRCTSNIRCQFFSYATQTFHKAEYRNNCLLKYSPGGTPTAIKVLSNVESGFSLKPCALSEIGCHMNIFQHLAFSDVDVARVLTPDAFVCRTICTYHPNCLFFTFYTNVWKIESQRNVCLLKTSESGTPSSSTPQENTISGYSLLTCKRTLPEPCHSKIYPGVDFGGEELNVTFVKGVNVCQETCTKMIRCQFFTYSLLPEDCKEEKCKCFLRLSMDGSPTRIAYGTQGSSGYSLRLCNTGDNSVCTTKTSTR

human Factor XIa, sequence (P03951 388-625 limits assumed): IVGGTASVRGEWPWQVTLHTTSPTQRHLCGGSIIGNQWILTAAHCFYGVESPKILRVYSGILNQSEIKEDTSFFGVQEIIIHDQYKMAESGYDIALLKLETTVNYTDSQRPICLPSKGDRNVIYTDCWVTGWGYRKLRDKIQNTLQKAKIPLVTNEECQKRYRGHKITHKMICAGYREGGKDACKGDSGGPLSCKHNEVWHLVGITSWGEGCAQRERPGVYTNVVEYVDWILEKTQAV
human Factor XIa, sequence (P03951 19-387 partner limits assumed): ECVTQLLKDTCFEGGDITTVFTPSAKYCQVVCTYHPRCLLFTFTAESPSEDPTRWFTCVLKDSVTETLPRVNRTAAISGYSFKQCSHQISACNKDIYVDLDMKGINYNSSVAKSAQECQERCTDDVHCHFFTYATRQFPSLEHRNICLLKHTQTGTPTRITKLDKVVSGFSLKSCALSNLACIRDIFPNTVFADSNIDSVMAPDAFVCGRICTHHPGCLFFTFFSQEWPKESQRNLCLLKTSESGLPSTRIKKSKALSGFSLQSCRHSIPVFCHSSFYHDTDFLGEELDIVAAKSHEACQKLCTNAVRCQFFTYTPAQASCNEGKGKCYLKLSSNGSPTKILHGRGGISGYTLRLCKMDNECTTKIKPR

Usually IC50 stands for the concentration needed to halve the response being measured. A lower IC50 goes with higher potency. In the case of `Cc1nc(N2C[C@H]3C[C@H]3C2=O)ncc1Cn1cc(NC(=O)c2nc(-c3c(C(F)F)ccc(Cl)c3F)cnc2C)cn1` [Example 33, 6-(3-Chloro-6-(difluoromethyl)-2-fluorophenyl)-3-methyl-N-(1-((4-methyl-2-((1R,5S)-2-oxo-3-azabicyclo[3.1.0]hexan-3-yl)pyrimidin-5-yl)methyl)-1H-pyrazol-4-yl)pyrazine-2-carboxamide], the IC50 on human Factor XIa was found to be 875 nM; on Human plasma kallikrein it was 2.5 nM.
For `[2H]C1([2H])C2CC2C(=O)N1c1ncc([C@H](C)n2cc(NC(=O)c3nc(-c4c(C(F)F)ccc(Cl)c4F)cnc3C)cn2)c(C)n1` (single isomer, unassigned) [Example 178, 6-(3-Chloro-6-(difluoromethyl)-2-fluorophenyl)-3-methyl-N-(1-((S)-1-(4-methyl-2-((1R,5S or 1S,5R)-2-oxo-3-azabicyclo[3.1.0]hexan-3-yl-4,4-d2)pyrimidin-5-yl)ethyl)-1H-pyrazol-4-yl)pyrazine-2-carboxamide] the same measures were 4530 nM and 14.2 nM.
Consider `Cc1ncc(-c2c(C(F)F)ccc(Cl)c2F)nc1C(=O)Nc1cnn(C(C)c2cnc(N3C[C@H]4C[C@H]4C3=O)c(C)n2)c1` (single isomer, unassigned) [Example 14, 6-(3-Chloro-6-(difluoromethyl)-2-fluorophenyl)-3-methyl-N-(1-((S or R)-1-(6-methyl-5-((1R,5S)-2-oxo-3-azabicyclo[3.1.0]hexan-3-yl)pyrazin-2-yl)ethyl)-1H-pyrazol-4-yl)pyrazine-2-carboxamide], for which the results for the IC50 at human Factor XIa and against Human plasma kallikrein were 550 nM and 0.8 nM, respectively.
